Numbers after ± are expanded uncertainties.
Assay: xn = mol fraction of the nth substance listed
Details: 101 kPa, Liquid

CCc1ccccc1 [ethylbenzene] + CN(C)C=O
Details | mass density [kg/m3]
293.15 K, x1 = 0.0514 | 942.69 ± 0.26
293.15 K, x1 = 0.1124 | 936.07 ± 0.28
293.15 K, x1 = 0.1754 | 929.58 ± 0.29
293.15 K, x1 = 0.2451 | 922.8 ± 0.31
293.15 K, x1 = 0.3102 | 916.81 ± 0.33
293.15 K, x1 = 0.3754 | 911.11 ± 0.34
293.15 K, x1 = 0.4514 | 904.81 ± 0.36
293.15 K, x1 = 0.5214 | 899.3 ± 0.37
293.15 K, x1 = 0.5862 | 894.43 ± 0.39
293.15 K, x1 = 0.6478 | 890 ± 0.4
293.15 K, x1 = 0.7012 | 886.28 ± 0.41
293.15 K, x1 = 0.7658 | 881.94 ± 0.43
293.15 K, x1 = 0.8214 | 878.33 ± 0.44
293.15 K, x1 = 0.8845 | 874.33 ± 0.45
293.15 K, x1 = 0.9451 | 870.6 ± 0.47
293.15 K, x1 = 1 | 867.28 ± 0.48
303.15 K, x1 = 0.0562 | 933.08 ± 0.28
303.15 K, x1 = 0.1141 | 926.82 ± 0.29
303.15 K, x1 = 0.1865 | 919.45 ± 0.31
303.15 K, x1 = 0.2451 | 913.8 ± 0.32
303.15 K, x1 = 0.3065 | 908.15 ± 0.34
303.15 K, x1 = 0.375 | 902.18 ± 0.35
303.15 K, x1 = 0.4354 | 897.14 ± 0.37
303.15 K, x1 = 0.4952 | 892.39 ± 0.38
303.15 K, x1 = 0.5685 | 886.81 ± 0.4
303.15 K, x1 = 0.6284 | 882.45 ± 0.41
303.15 K, x1 = 0.7025 | 877.28 ± 0.43
303.15 K, x1 = 0.7654 | 873.05 ± 0.44
303.15 K, x1 = 0.8251 | 869.17 ± 0.45
303.15 K, x1 = 0.8821 | 865.57 ± 0.47
303.15 K, x1 = 0.9422 | 861.86 ± 0.48
303.15 K, x1 = 1 | 858.36 ± 0.49
313.15 K, x1 = 0.0684 | 922.45 ± 0.29
313.15 K, x1 = 0.1151 | 917.46 ± 0.31
313.15 K, x1 = 0.1855 | 910.34 ± 0.32
313.15 K, x1 = 0.2525 | 903.93 ± 0.34
313.15 K, x1 = 0.3101 | 898.69 ± 0.35
313.15 K, x1 = 0.3852 | 892.2 ± 0.37
313.15 K, x1 = 0.4421 | 887.51 ± 0.38
313.15 K, x1 = 0.5012 | 882.85 ± 0.39
313.15 K, x1 = 0.5688 | 877.74 ± 0.41
313.15 K, x1 = 0.6211 | 873.93 ± 0.42
313.15 K, x1 = 0.6855 | 869.42 ± 0.43
313.15 K, x1 = 0.7451 | 865.39 ± 0.45
313.15 K, x1 = 0.8021 | 861.65 ± 0.46
313.15 K, x1 = 0.8654 | 857.62 ± 0.47
313.15 K, x1 = 0.9325 | 853.47 ± 0.49
313.15 K, x1 = 1 | 849.38 ± 0.5
323.15 K, x1 = 0.0463 | 915.35 ± 0.3
323.15 K, x1 = 0.1125 | 908.29 ± 0.32
323.15 K, x1 = 0.1785 | 901.64 ± 0.33
323.15 K, x1 = 0.2462 | 895.17 ± 0.35
323.15 K, x1 = 0.312 | 889.22 ± 0.36
323.15 K, x1 = 0.3745 | 883.85 ± 0.38
323.15 K, x1 = 0.4352 | 878.85 ± 0.39
323.15 K, x1 = 0.4952 | 874.12 ± 0.41
323.15 K, x1 = 0.5552 | 869.58 ± 0.42
323.15 K, x1 = 0.6125 | 865.41 ± 0.43
323.15 K, x1 = 0.6784 | 860.79 ± 0.45
323.15 K, x1 = 0.7451 | 856.29 ± 0.46
323.15 K, x1 = 0.8021 | 852.57 ± 0.47
323.15 K, x1 = 0.8666 | 848.48 ± 0.49
323.15 K, x1 = 0.9451 | 843.65 ± 0.5
323.15 K, x1 = 1 | 840.35 ± 0.51
333.15 K, x1 = 0.0548 | 904.7 ± 0.32
333.15 K, x1 = 0.1241 | 897.45 ± 0.34
333.15 K, x1 = 0.1852 | 891.41 ± 0.35
333.15 K, x1 = 0.2451 | 885.77 ± 0.36
333.15 K, x1 = 0.3021 | 880.64 ± 0.38
333.15 K, x1 = 0.3625 | 875.45 ± 0.39
333.15 K, x1 = 0.4255 | 870.27 ± 0.4
333.15 K, x1 = 0.4954 | 864.79 ± 0.42
333.15 K, x1 = 0.5621 | 859.79 ± 0.43
333.15 K, x1 = 0.6215 | 855.53 ± 0.45
333.15 K, x1 = 0.6865 | 851.02 ± 0.46
333.15 K, x1 = 0.7451 | 847.11 ± 0.47
333.15 K, x1 = 0.8002 | 843.53 ± 0.48
333.15 K, x1 = 0.8621 | 839.62 ± 0.5
333.15 K, x1 = 0.9351 | 835.15 ± 0.51
333.15 K, x1 = 1 | 831.25 ± 0.52
343.15 K, x1 = 0.0689 | 893.27 ± 0.34
343.15 K, x1 = 0.132 | 886.83 ± 0.35
343.15 K, x1 = 0.1952 | 880.71 ± 0.37
343.15 K, x1 = 0.2621 | 874.55 ± 0.38
343.15 K, x1 = 0.3262 | 868.95 ± 0.4
343.15 K, x1 = 0.3865 | 863.91 ± 0.41
343.15 K, x1 = 0.4461 | 859.15 ± 0.42
343.15 K, x1 = 0.5121 | 854.09 ± 0.44
343.15 K, x1 = 0.5685 | 849.94 ± 0.45
343.15 K, x1 = 0.6332 | 845.36 ± 0.46
343.15 K, x1 = 0.7095 | 840.17 ± 0.48
343.15 K, x1 = 0.7651 | 836.53 ± 0.49
343.15 K, x1 = 0.8221 | 832.9 ± 0.5
343.15 K, x1 = 0.8858 | 828.96 ± 0.51
343.15 K, x1 = 0.9514 | 824.99 ± 0.53
343.15 K, x1 = 1 | 822.11 ± 0.54
353.15 K, x1 = 0.0458 | 885.55 ± 0.35
353.15 K, x1 = 0.1112 | 878.86 ± 0.36
353.15 K, x1 = 0.1784 | 872.35 ± 0.38
353.15 K, x1 = 0.2351 | 867.13 ± 0.39
353.15 K, x1 = 0.2965 | 861.72 ± 0.4
353.15 K, x1 = 0.3589 | 856.48 ± 0.42
353.15 K, x1 = 0.4152 | 851.94 ± 0.43
353.15 K, x1 = 0.4784 | 847.06 ± 0.44
353.15 K, x1 = 0.5321 | 843.06 ± 0.45
353.15 K, x1 = 0.5962 | 838.48 ± 0.47
353.15 K, x1 = 0.6748 | 833.09 ± 0.48
353.15 K, x1 = 0.7451 | 828.47 ± 0.5
353.15 K, x1 = 0.8032 | 824.77 ± 0.51
353.15 K, x1 = 0.8745 | 820.37 ± 0.52
353.15 K, x1 = 0.9548 | 815.56 ± 0.54
353.15 K, x1 = 1 | 812.9 ± 0.55
